These are literature values, as cited in patent publication US20260232582A1, “PHARMACEUTICAL COMPOSITION OF ENSIFENTRINE WITH PHARMACEUTICALLY ACCEPTABLE PROPELLANTS” (CIPLA LIMITED, priority 2023, published 2026).

One data set concerns COPD patients. As to conditions: Phase 2; DPI and pMDI formulations.
The next data set concerns subjects. As to conditions: clinical trials involving more than 2,200 subjects.

SMILES strings stand for the structures.

With `COc1cc2c(cc1OC)-c1c/c(=N\c3c(C)cc(C)cc3C)n(CCNC(N)=O)c(=O)n1CC2` [Ensifentrine], the “Primary endpoint (improvements in lung function)” value in the data set with COPD (nebulized, both ENHANCE-1 and ENHANCE-2 trials) is listed as “met the primary endpoint”. For the same compound, the “Rate and risk of COPD exacerbations” value in the data set on COPD (pooled analysis from ENHANCE-1 and ENHANCE-2) is “significantly reduced”. Besides, the “Lung function in COPD patients” value in the data set on COPD patients was “significant improvements in lung function”. Moreover, the “Tolerability in clinical trials” value in the data set with subjects is listed as “well tolerated”.
